The subject of one data set is ALAS1 mRNA. As to the kind of experiment: ALAS1 mRNA quantification (Taqman real-time PCR) in LMH cells. The data set is classed as cell-based, chicken. As for the experimental part:
We next wanted to compare ADRES-mediated ALAS1 induction levels from reporter gene assays with stimulation of transcription in a physiological system. […] In addition, the common CYP3A inducers dexamethasone (50 μM), metyrapone (400 μM), and 10 μM mifepristone (RU-486) were employed for comparison. We were also interested in the effects of […] 5-pregnen-3β-ol-20-one-16α-carbonitrile (PCN) and rifampicin (100 μM) due to their species-specific effects on PXR activation and CYP3A induction. Messenger RNA was reverse transcribed and levels of ALAS1 cDNA were quantified using the Taqman real-time PCR quantification system as described in Materials and Methods. […] This value was chosen to represent 100% induction, against which all other values are compared.
LMH cells were plated onto 12-well plates, expanded to 70-80% surface density and incubated in serum-free media for 24 h. Cells were then exposed to either drug or vehicle and RNA was isolated with Trizol reagent (Gibco BRL) according to the manufacturer protocol. One μg of total RNA was reverse transcribed with the Moloney murine leukemia virus reverse transcriptase kit (Roche Molecular Biochemicals). PCR was performed using the Taqman PCR core reagent kit (PE Applied Biosystems) and transcript levels quantitated with an ABI Prism 7700 sequence detection system (PE Applied Biosystems). Relative transcript levels were determined using the relative quantitation method measuring the ΔΔCt. The following primers and probes were used in these reactions. […] Transcript levels were measured in separate tubes and GAPDH values were used for normalization of ALAS1 values.
In general terms: In qPCR the cycle at which signal appears reflects the starting amount.

Data set [1] relates to chicken ALAS1 drug responsive enhancer sequence (ADRES) elements. Briefly: Luciferase reporter gene assay of chicken ALAS1 5'-flanking fragments / ADRES elements in transfected LMH cells. The data set is classed as cell-based. As to conditions: for ADRES activation in reporter assays: LMH cells, 16 h, PIA 250 μM, glutethimide 500 μM, metyrapone 400 μM, dexamethasone 50 μM, RU-486 10 μM, rifampicin 100 μM, TCPOBOP 10 μM, compared with PB 600 μM. As for the experimental part:
The constructs were transfected together with a transfection-control construct expressing β-galactosidase into LMH cells. Cells were then treated with 600 μM PB for 16 h and luciferase assays were performed on the cell extracts. Relative luciferase levels are standardized against cells transfected with vector containing no insert and expressed as fold induction. Experiments were repeated at least three times and data from a representative experiment tested in triplicate are shown here. Error bars represent standard deviations;
Three major subclones were generated from the region upstream of the transcriptional start site, including a 3282 bp SmaI fragment and 5056 bp and 7973 bp EcoRI segments (FIG. 1A). The SmaI clone extends from −167 bp to −3449 bp, whereas the EcoRI subfragments span the regions from −2347 bp to −7402 bp and −7403 bp to −15376 bp, respectively. These subfragments were cloned into the pLucMCS modified luciferase vector containing an SV40 promoter as described in Materials and Methods. Drug inducibility was measured in transiently transfected LMH cells treated with 600 μM PB and compared with control values. […]
The modified enhancers were examined for response to 600 μM PB in luciferase reporter gene assays and the results are presented in FIG. 3.
Leghorn Male Hepatoma (LMH) cells were obtained from the American Type Culture Collection and cultivated in 10 cm dishes in Williams E medium supplemented with 10% FCS, 1% glutamine (2 mM) and 1% penicillin/streptomycin (50 IU/ml). Dishes coated with 0.1% gelatin were used for routine culture of LMH cells in order to facilitate proper seating of the cells onto the plastic plate surface.
(In general: A reporter such as luciferase makes a cellular process visible.)

For another data set, the target named is T1, mouse PXR (Mus musculus, UniProt O54915).
T1 sequence (O54915 1-431): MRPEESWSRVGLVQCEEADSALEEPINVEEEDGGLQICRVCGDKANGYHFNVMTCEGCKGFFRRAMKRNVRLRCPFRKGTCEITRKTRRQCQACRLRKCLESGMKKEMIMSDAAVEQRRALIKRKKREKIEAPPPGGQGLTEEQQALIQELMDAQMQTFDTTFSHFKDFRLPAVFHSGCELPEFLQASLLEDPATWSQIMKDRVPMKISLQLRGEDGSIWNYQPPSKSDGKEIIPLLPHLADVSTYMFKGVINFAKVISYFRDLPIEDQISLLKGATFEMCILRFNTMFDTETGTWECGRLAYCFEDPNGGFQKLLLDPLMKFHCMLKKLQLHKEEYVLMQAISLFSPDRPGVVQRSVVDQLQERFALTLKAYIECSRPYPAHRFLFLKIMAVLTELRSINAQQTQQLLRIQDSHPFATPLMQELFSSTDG
How it is done:
(§1) To test the effects of the mutations on transcriptional activation, transactivations in CV-1 cells with mouse PXR and mouse CAR and their respective inducers PCN and TCPOBOP, were performed (FIG. 14). The inducible DNA constructs were subcloned into the CAT5 reporter vector and tested for their ability to be transactivated by nuclear receptor transcription factors in CV-1 cells. Mouse PXR (A) and mouse CAR (B) coding regions cloned into the pSG5 expression vector were cotransfected along with a vector expressing pSV β-galactosidase as control. Cells were then treated for 16 h with either drugs (A, PCN; B, TCPOBOP) or vehicle control and cell extracts were analyzed for CAT expression normalized against β-galactosidase levels. Experiments were repeated at least three times and error bars represent standard deviations.

For another data set, the target named is T2, mouse CAR (Mus musculus, UniProt O35627).
T2 construct: expressed in transfected cells; host or cells: CV-1 cells, pSG5 expression vector
T2 sequence (O35627 1-358): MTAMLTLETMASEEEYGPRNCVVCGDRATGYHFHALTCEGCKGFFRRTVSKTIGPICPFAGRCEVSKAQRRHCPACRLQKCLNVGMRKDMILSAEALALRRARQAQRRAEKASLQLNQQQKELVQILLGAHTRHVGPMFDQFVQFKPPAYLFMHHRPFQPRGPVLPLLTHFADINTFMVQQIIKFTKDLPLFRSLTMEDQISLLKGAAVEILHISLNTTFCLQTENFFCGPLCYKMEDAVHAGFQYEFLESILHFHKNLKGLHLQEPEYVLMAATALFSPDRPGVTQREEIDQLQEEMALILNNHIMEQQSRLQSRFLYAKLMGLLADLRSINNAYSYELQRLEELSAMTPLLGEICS
As to the kind of experiment: Transactivation of 369 bp ADRES by mouse CAR in CV-1 cells (CAT reporter). The data set is classed as cell-based. How it is done: as §1

The next data set relates to mouse 369 bp DRES. Briefly: Luciferase reporter gene assay of mouse ALAS1 fragments / 369 bp DRES in LMH cells. The data set is classed as cell-based. As to conditions: for induction of the 369 bp DRES, ranking of drugs: metyrapone 500 μM, glutethimide 500 μM, PIA 250 μM. How it is done: A 175 bp fragment (441 to 615) (Seq. Id. No. 3) was isolated by digesting the 2.6 kb fragment with SacI/XbaI. All fragments were subcloned in the pGL3LUCpro+MCS vector and the resulting constructs tested for inducibility in LMH reporter gene assay (FIG. 6). […] The 369 bp fragment was termed Drug responsive enhancer sequence DRES.
To compare the 369 bp DRES to other inducible fragments, a series of different drugs was used as inducers: clothrimazole (Clo, 10 μM), dexamethasone (Dex, 50 μM), glutethimide (GE, 500 μM), metyrapone (Met, 500 μM), phenobarbital (PB, 500 μM), PCN (10 μM), propylisopropylacetamide (PIA, 250 μM), rifampicin (Rif, 10 μM), RU486 (10 μM), TCPOBOP (10 μM).
Data shown is from two independent experiments.

Data on 5 compounds can be found in US20050118601A1, “Enhancer sequence of the 5-aminolevulinic acid synthase gene” (priority 2002, published 2005).

Read-outs that look alike come from different tables or passages of the source.

On to `CC(=O)[C@H]1[C@H](C#N)C[C@H]2[C@@H]3CC=C4C[C@@H](O)CC[C@]4(C)[C@H]3CC[C@@]21C` [PCN, 5-pregnene-3β-ol-20-one-16α-carbonitrile], for which the “effect on ALAS1 mRNA levels” value in the data set with ALAS1 mRNA is “minor or no effects”. The “ADRES activation in reporter assays” value in data set [1] is listed as “minor or no effects”. For the same compound, at mouse PXR, the “activation, DR4-1 double mutant” value worked out at 1.9 fold; the “activation, first DR4-2 single mutant (DR4-2/hs1)” value stood at 5.8 fold; the “activation, second DR4-2 single mutant (DR4-2/hs2)” value is 5.3 fold; the “drug response, both NR binding sites of 369 bp element altered” value is “elimination of PXR-mediated drug response”. At mouse PXR, the “induction, 369 bp wild type” value is 5.6 fold; the “induction, DR4-2 double mutant” value was found to be 2.5 fold; the “induction, first DR4-1 single mutant (DR4-1/hs1)” value amounted to 2.7 fold; the “induction, second DR4-1 single mutant (DR4-1/hs2)” value stood at 2.0 fold.

Regarding `CC#C[C@]1(O)CC[C@H]2[C@@H]3CCC4=CC(=O)CCC4=C3[C@@H](c3ccc(N(C)C)cc3)C[C@@]21C` [RU-486, Mifepristone], in the data set on ALAS1 mRNA (LMH cells, 16 h, PB 600 μM, dexamethasone 50 μM, RU-486 10 μM, rifampicin 100 μM, TCPOBOP 10 μM), the “effect on ALAS1 mRNA levels” value was “minor or no effects”. Further, the “ADRES activation in reporter assays” value in data set [1] is given as “minor or no effects”.

As to `C[C@@]12CCC[C@H]1[C@@H]1CC[C@H]3C[C@@H](O)CC[C@]3(C)[C@H]1CC2` [androstanol], on mouse CAR, the “basal expression exceeding androstanol-treated levels, DR4-2/hs1 single mutant” value came out at 2.5 fold and the “basal expression exceeding androstanol-treated levels, DR4-2/hs2 single mutant” value is 1.9 fold.

As to `CCC1(c2ccccc2)CCC(=O)NC1=O` (stereo not drawn) [glutethimide, Glutethimide], in data set [1], the “ADRES activation in reporter assays” value was “in excess of levels obtained from PB treatment”. Further, the “relative response of the 176 bp element” value in data set [1] (glutethimide 500 μM vs metyrapone 400 μM) is on record as “slightly more affinity for glutethimide than metyrapone”. Moreover, the “induction of the 369 bp DRES, ranking of drugs” value in the data set with mouse 369 bp DRES is recorded as “strongest inducer”.

Regarding `CC(C)(C(=O)c1cccnc1)c1cccnc1` [metyrapone, 2-methyl-1,2-di-3-pyridyl-propadone], the “ADRES activation in reporter assays” value in data set [1] is “in excess of levels obtained from PB treatment”. Besides, the “relative response of the 167 bp element” value in data set [1] (metyrapone 400 μM vs glutethimide 500 μM) is given as “stronger response to metyrapone than glutethimide”. For the same compound, the “induction of mouse 175, 280, 321, 328 and 369 bp fragments” value with mouse 369 bp DRES (Metyrapone 500 μM) is listed as “enhanced induction”. Further, the “induction of the 369 bp DRES, ranking of drugs” value with mouse 369 bp DRES is recorded as “strongest inducer”.
